{"source": "ChEMBL document CHEMBL3792294", "about": "“Efficient synthesis of new 2,3-dihydrooxazole-spirooxindoles hybrids as antimicrobial agents” (2016)", "type_in_all_cases": "functional", "key": {"Phytophthora infestans": {"test_system": "Phytophthora infestans", "assay": "Antifungal activity against Phytophthora infestans after 72 hrs by agar diffusion method"}, "Pyricularia oryzae": {"test_system": "Pyricularia oryzae", "assay": "Antifungal activity against Pyricularia oryzae after 48 hrs by agar diffusion method"}, "Bacillus subtilis": {"test_system": "Bacillus subtilis", "assay": "Antibacterial activity against Bacillus subtilis after 24 hrs by spectrophotometry"}, "Podosphaera fuliginea": {"test_system": "Podosphaera fuliginea", "assay": "Antifungal activity against Sphaerotheca fuliginea after 72 hrs by agar diffusion method"}, "Klebsiella pneumoniae": {"test_system": "Klebsiella pneumoniae", "assay": "Antibacterial activity against Klebsiella pneumoniae after 24 hrs by spectrophotometry"}, "[1]": {"test_system": "Pseudoperonospora cubensis", "assay": "Antifungal activity against Pseudoperonospora cubensis after 72 hrs by agar diffusion method"}, "Enterobacter": {"test_system": "Enterobacter", "assay": "Antibacterial activity against Enterobacter after 24 hrs by spectrophotometry"}}, "note": "Activity calls are given as the source filed them. No cut-off for these calls is given here.", "data": [{"compound": "O=C(NN1C(c2ccccc2)=C(c2ccccc2)OC12C(=O)Nc1ccccc12)c1ccccc1O", "note": "(stereo not given)", "values": [{"measurement": "MIC", "setting": "Phytophthora infestans", "result": 14, "unit": "mg/L"}, {"measurement": "MIC", "setting": "Pyricularia oryzae", "result": 16, "unit": "mg/L"}, {"measurement": "MBC", "setting": "Bacillus subtilis", "result": 100, "unit": "mg/L"}, {"measurement": "MIC", "setting": "Bacillus subtilis", "result": 70, "unit": "mg/L"}, {"measurement": "MIC", "setting": "Podosphaera fuliginea", "result": 12, "unit": "mg/L"}, {"measurement": "MBC", "setting": "Klebsiella pneumoniae", "result": "inactive"}, {"measurement": "MIC", "setting": "Klebsiella pneumoniae", "result": "inactive"}, {"measurement": "MIC", "setting": "[1]", "result": 12, "unit": "mg/L"}, {"measurement": "MBC", "setting": "Enterobacter", "result": 50, "unit": "mg/L"}, {"measurement": "MIC", "setting": "Enterobacter", "result": 40, "unit": "mg/L"}]}, {"compound": "O=C(COc1ccccc1)NN1C(c2ccccc2)=C(c2ccccc2)OC12C(=O)Nc1ccccc12", "note": "(stereo not given)", "values": [{"measurement": "MIC", "setting": "Phytophthora infestans", "result": 14, "unit": "mg/L"}, {"measurement": "MIC", "setting": "Pyricularia oryzae", "result": 15, "unit": "mg/L"}, {"measurement": "MBC", "setting": "Bacillus subtilis", "result": 100, "unit": "mg/L"}, {"measurement": "MIC", "setting": "Bacillus subtilis", "result": 50, "unit": "mg/L"}, {"measurement": "MIC", "setting": "Podosphaera fuliginea", "result": 16, "unit": "mg/L"}, {"measurement": "MBC", "setting": "Klebsiella pneumoniae", "result": "inactive"}, {"measurement": "MIC", "setting": "Klebsiella pneumoniae", "result": "inactive"}, {"measurement": "MIC", "setting": "[1]", "result": 12, "unit": "mg/L"}, {"measurement": "MBC", "setting": "Enterobacter", "result": 100, "unit": "mg/L"}, {"measurement": "MIC", "setting": "Enterobacter", "result": 40, "unit": "mg/L"}]}, {"compound": "O=C(NN1C(c2ccccc2)=C(c2ccccc2)OC12C(=O)Nc1ccccc12)c1ccc([N+](=O)[O-])cc1", "note": "(stereo not given)", "values": [{"measurement": "MIC", "setting": "Phytophthora infestans", "result": 12, "unit": "mg/L"}, {"measurement": "MIC", "setting": "Pyricularia oryzae", "result": 16, "unit": "mg/L"}, {"measurement": "MBC", "setting": "Bacillus subtilis", "result": 50, "unit": "mg/L"}, {"measurement": "MIC", "setting": "Bacillus subtilis", "result": 30, "unit": "mg/L"}, {"measurement": "MIC", "setting": "Podosphaera fuliginea", "result": 12, "unit": "mg/L"}, {"measurement": "MBC", "setting": "Klebsiella pneumoniae", "result": "inactive"}, {"measurement": "MIC", "setting": "Klebsiella pneumoniae", "result": "inactive"}, {"measurement": "MIC", "setting": "[1]", "result": 18, "unit": "mg/L"}, {"measurement": "MBC", "setting": "Enterobacter", "result": 50, "unit": "mg/L"}, {"measurement": "MIC", "setting": "Enterobacter", "result": 30, "unit": "mg/L"}]}, {"compound": "Cc1cccc(OCC(=O)NN2C(c3ccccc3)=C(c3ccccc3)OC23C(=O)Nc2ccccc23)c1", "note": "(stereo not given)", "values": [{"measurement": "MIC", "setting": "Phytophthora infestans", "result": 12, "unit": "mg/L"}, {"measurement": "MIC", "setting": "Pyricularia oryzae", "result": 20, "unit": "mg/L"}, {"measurement": "MBC", "setting": "Bacillus subtilis", "result": "inactive"}, {"measurement": "MIC", "setting": "Bacillus subtilis", "result": "inactive"}, {"measurement": "MIC", "setting": "Podosphaera fuliginea", "result": "inactive"}, {"measurement": "MBC", "setting": "Klebsiella pneumoniae", "result": "inactive"}, {"measurement": "MIC", "setting": "Klebsiella pneumoniae", "result": "inactive"}, {"measurement": "MIC", "setting": "[1]", "result": "inactive"}, {"measurement": "MBC", "setting": "Enterobacter", "result": 100, "unit": "mg/L"}, {"measurement": "MIC", "setting": "Enterobacter", "result": 40, "unit": "mg/L"}]}, {"compound": "NYSTATIN", "values": [{"measurement": "MIC", "setting": "Phytophthora infestans", "result": 18, "unit": "mg/L"}, {"measurement": "MIC", "setting": "Pyricularia oryzae", "result": 20, "unit": "mg/L"}, {"measurement": "MIC", "setting": "Podosphaera fuliginea", "result": 18, "unit": "mg/L"}, {"measurement": "MIC", "setting": "[1]", "result": 18, "unit": "mg/L"}]}, {"compound": "O=C(NN1C(c2ccccc2)=C(c2ccccc2)OC12C(=O)Nc1ccccc12)c1ccc(Cl)cc1", "note": "(stereo not given)", "values": [{"measurement": "MIC", "setting": "Phytophthora infestans", "result": 14, "unit": "mg/L"}, {"measurement": "MIC", "setting": "Pyricularia oryzae", "result": 14, "unit": "mg/L"}, {"measurement": "MBC", "setting": "Bacillus subtilis", "result": 100, "unit": "mg/L"}, {"measurement": "MIC", "setting": "Bacillus subtilis", "result": 50, "unit": "mg/L"}, {"measurement": "MIC", "setting": "Podosphaera fuliginea", "result": 12, "unit": "mg/L"}, {"measurement": "MBC", "setting": "Klebsiella pneumoniae", "result": 100, "unit": "mg/L"}, {"measurement": "MIC", "setting": "Klebsiella pneumoniae", "result": 50, "unit": "mg/L"}, {"measurement": "MIC", "setting": "[1]", "result": 12, "unit": "mg/L"}, {"measurement": "MBC", "setting": "Enterobacter", "result": 50, "unit": "mg/L"}, {"measurement": "MIC", "setting": "Enterobacter", "result": 30, "unit": "mg/L"}]}, {"compound": "COc1ccc(C(=O)NN2C(c3ccccc3)=C(c3ccccc3)OC23C(=O)Nc2ccccc23)cc1", "note": "(stereo not given)", "values": [{"measurement": "MIC", "setting": "Phytophthora infestans", "result": 14, "unit": "mg/L"}, {"measurement": "MIC", "setting": "Pyricularia oryzae", "result": 12, "unit": "mg/L"}, {"measurement": "MBC", "setting": "Bacillus subtilis", "result": 200, "unit": "mg/L"}, {"measurement": "MIC", "setting": "Bacillus subtilis", "result": 100, "unit": "mg/L"}, {"measurement": "MIC", "setting": "Podosphaera fuliginea", "result": 8, "unit": "mg/L"}, {"measurement": "MBC", "setting": "Klebsiella pneumoniae", "result": "inactive"}, {"measurement": "MIC", "setting": "Klebsiella pneumoniae", "result": "inactive"}, {"measurement": "MIC", "setting": "[1]", "result": 14, "unit": "mg/L"}, {"measurement": "MBC", "setting": "Enterobacter", "result": 100, "unit": "mg/L"}, {"measurement": "MIC", "setting": "Enterobacter", "result": 50, "unit": "mg/L"}]}, {"compound": "O=C(COc1ccc(Cl)cc1Cl)NN1C(c2ccccc2)=C(c2ccccc2)OC12C(=O)Nc1ccccc12", "note": "(stereo not given)", "values": [{"measurement": "MIC", "setting": "Phytophthora infestans", "result": "inactive"}, {"measurement": "MIC", "setting": "Pyricularia oryzae", "result": "inactive"}, {"measurement": "MBC", "setting": "Bacillus subtilis", "result": 50, "unit": "mg/L"}, {"measurement": "MIC", "setting": "Bacillus subtilis", "result": 25, "unit": "mg/L"}, {"measurement": "MIC", "setting": "Podosphaera fuliginea", "result": 14, "unit": "mg/L"}, {"measurement": "MBC", "setting": "Klebsiella pneumoniae", "result": 50, "unit": "mg/L"}, {"measurement": "MIC", "setting": "Klebsiella pneumoniae", "result": 25, "unit": "mg/L"}, {"measurement": "MIC", "setting": "[1]", "result": "inactive"}, {"measurement": "MBC", "setting": "Enterobacter", "result": 100, "unit": "mg/L"}, {"measurement": "MIC", "setting": "Enterobacter", "result": 40, "unit": "mg/L"}]}, {"compound": "Cc1ccc(OCC(=O)NN2C(c3ccccc3)=C(c3ccccc3)OC23C(=O)Nc2ccccc23)cc1", "note": "(stereo not given)", "values": [{"measurement": "MIC", "setting": "Phytophthora infestans", "result": 14, "unit": "mg/L"}, {"measurement": "MIC", "setting": "Pyricularia oryzae", "result": 8, "unit": "mg/L"}, {"measurement": "MBC", "setting": "Bacillus subtilis", "result": "inactive"}, {"measurement": "MIC", "setting": "Bacillus subtilis", "result": "inactive"}, {"measurement": "MIC", "setting": "Podosphaera fuliginea", "result": 12, "unit": "mg/L"}, {"measurement": "MBC", "setting": "Klebsiella pneumoniae", "result": "inactive"}, {"measurement": "MIC", "setting": "Klebsiella pneumoniae", "result": "inactive"}, {"measurement": "MIC", "setting": "[1]", "result": 12, "unit": "mg/L"}, {"measurement": "MBC", "setting": "Enterobacter", "result": 100, "unit": "mg/L"}, {"measurement": "MIC", "setting": "Enterobacter", "result": 50, "unit": "mg/L"}]}, {"compound": "Cc1ccccc1OCC(=O)NN1C(c2ccccc2)=C(c2ccccc2)OC12C(=O)Nc1ccccc12", "note": "(stereo not given)", "values": [{"measurement": "MIC", "setting": "Phytophthora infestans", "result": 18, "unit": "mg/L"}, {"measurement": "MIC", "setting": "Pyricularia oryzae", "result": 17, "unit": "mg/L"}, {"measurement": "MBC", "setting": "Bacillus subtilis", "result": "inactive"}, {"measurement": "MIC", "setting": "Bacillus subtilis", "result": "inactive"}, {"measurement": "MIC", "setting": "Podosphaera fuliginea", "result": 12, "unit": "mg/L"}, {"measurement": "MBC", "setting": "Klebsiella pneumoniae", "result": "inactive"}, {"measurement": "MIC", "setting": "Klebsiella pneumoniae", "result": "inactive"}, {"measurement": "MIC", "setting": "[1]", "result": 8, "unit": "mg/L"}, {"measurement": "MBC", "setting": "Enterobacter", "result": 50, "unit": "mg/L"}, {"measurement": "MIC", "setting": "Enterobacter", "result": 30, "unit": "mg/L"}]}, {"compound": "O=C(O)c1cn(C2CC2)c2cc(N3CCNCC3)c(F)cc2c1=O", "note": "[CIPROFLOXACIN]", "values": [{"measurement": "MBC", "setting": "Bacillus subtilis", "result": 12.5, "unit": "mg/L"}, {"measurement": "MIC", "setting": "Bacillus subtilis", "result": 6.25, "unit": "mg/L"}, {"measurement": "MBC", "setting": "Klebsiella pneumoniae", "result": 25, "unit": "mg/L"}, {"measurement": "MIC", "setting": "Klebsiella pneumoniae", "result": 6.25, "unit": "mg/L"}, {"measurement": "MBC", "setting": "Enterobacter", "result": 25, "unit": "mg/L"}, {"measurement": "MIC", "setting": "Enterobacter", "result": 10.2, "unit": "mg/L"}]}]}
